Data published in US10550091B2, “1,4,5-substituted 1,2,3-triazole analogues as antagonists of the pregnane X receptor” (ST. JUDE CHILDREN'S RESEARCH HOSPITAL, priority 2016, dated 2020).
Read-outs that look alike come from different tables or passages of the source.

What was measured:
[1] = molecular target: human peroxisome proliferator-activated receptor gamma (PPARγ) (Homo sapiens, UniProt P37231); experiment: human peroxisome proliferator-activated receptor gamma (PPARγ) transactivation assay; format: cell-based; settings: PPARγ antagonistic assay, 100 nM rosiglitazone; read-out: IC50
Description: Cells were maintained by following manufacturer's instruction. Briefly, PPARγ cells were maintained in matrigel-coated tissue culture flasks in DMEM supplemented with 10% dialyzed FBS, 0.1 mM non-essential amino acids, 1 mM sodium pyruvate, 25 mM HEPES, 100 μg/ml of hygromycin B, 500 μg/ml of geneticin, 100 units/ml penicillin and 100 μg/ml streptomycin. […] Assay medium containing DMSO without cells serves as background control.

hPXR [2] = molecular target: T1, hPXR (Homo sapiens (Human), UniProt O75469); experiment: hPXR transactivation assays (agonistic and antagonistic), HepG2 cells with CYP3A4-luciferase reporter; settings: 24 h, NA = not active; for IC50: read-out: IC50 (antag), antagonistic assay, combined with 5 μM rifampicin; for EC50: read-out: EC50 (agon), agonistic assay, compound alone
Description: (§1) The hPXR transactivation assays (PXR agonistic and antagonistic assays) were performed in the HepG2 cells stably expressing FLAG-hPXR and CYP3A4-luciferase reporter. […] The luminescence signal was detected using an Envision plate reader (PerkinElmer Life Sciences).

HepG2 cells = experiment: HepG2 cytotoxicity assay (CellTiter Glo); format: cell-based; settings: Homo sapiens, HepG2, 72 h, read-out: IC50 (cyto)
Excerpt: The luminescence signal was detected using an Envision plate reader (PerkinElmer Life Sciences).

hPXR [3] = molecular target: T1, hPXR
Description: as §1

T1 sequence (O75469 whole entry): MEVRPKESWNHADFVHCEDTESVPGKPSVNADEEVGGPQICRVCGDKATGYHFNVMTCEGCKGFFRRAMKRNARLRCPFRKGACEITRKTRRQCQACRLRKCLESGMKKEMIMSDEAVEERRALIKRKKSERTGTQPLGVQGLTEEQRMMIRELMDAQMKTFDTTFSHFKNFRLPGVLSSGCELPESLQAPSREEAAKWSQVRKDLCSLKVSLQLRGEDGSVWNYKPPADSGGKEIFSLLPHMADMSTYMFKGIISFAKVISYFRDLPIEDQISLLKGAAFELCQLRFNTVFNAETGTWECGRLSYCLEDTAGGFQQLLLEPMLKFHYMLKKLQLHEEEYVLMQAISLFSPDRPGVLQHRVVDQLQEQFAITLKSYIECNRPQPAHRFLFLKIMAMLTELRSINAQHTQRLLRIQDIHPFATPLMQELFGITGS
human peroxisome proliferator-activated receptor gamma (PPARγ), sequence (P37231 whole entry, looked up): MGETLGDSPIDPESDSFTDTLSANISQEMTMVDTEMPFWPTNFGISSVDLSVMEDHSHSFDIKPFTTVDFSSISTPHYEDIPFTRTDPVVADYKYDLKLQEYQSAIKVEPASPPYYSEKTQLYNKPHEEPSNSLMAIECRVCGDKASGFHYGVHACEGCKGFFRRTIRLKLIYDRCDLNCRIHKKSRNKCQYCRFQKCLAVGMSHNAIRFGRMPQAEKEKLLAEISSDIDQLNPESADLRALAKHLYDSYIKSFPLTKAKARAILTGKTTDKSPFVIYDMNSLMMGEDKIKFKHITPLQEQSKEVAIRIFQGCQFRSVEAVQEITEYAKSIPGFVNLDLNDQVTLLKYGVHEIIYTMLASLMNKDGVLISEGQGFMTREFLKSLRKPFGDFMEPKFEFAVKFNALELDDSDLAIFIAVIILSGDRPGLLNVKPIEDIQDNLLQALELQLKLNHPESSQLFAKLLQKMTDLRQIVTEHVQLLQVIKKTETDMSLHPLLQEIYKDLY

Row | Structure (SMILES) | EC50 (hPXR [3]) | also measured
1 | O=C(Nc1ccccc1)c1cc([N+](=O)[O-])ccc1Cl [GW9662, reference compound] |  | IC50 [1]: 241 nM
2 | COc1ccc(C)cc1-n1nnc(S(=O)(=O)c2ccc(C(C)C)cc2)c1C [LC-2] |  | IC50 (hPXR [2]): 660 nM
3 | COc1ccc(Cl)cc1-n1nnc(S(=O)(=O)c2ccc(C(C)C)cc2)c1C [LC-3] |  | IC50 (hPXR [2]): 520 nM
4 | COc1ccc(OC)c(-n2nnc(S(=O)(=O)c3ccc(C(C)C)cc3)c2C)c1 [LC-4] |  | IC50 (hPXR [2]): 630 nM
5 | COc1cc(C(C)=O)c(C)cc1-n1nnc(S(=O)(=O)c2ccc(C(C)(C)C)cc2)c1C [LC-26, 1-(4-(4-((4-(tert-butyl)phenyl)sulfonyl)-5-methyl-1H-1,2,3-triazol-1-yl)-5-methoxy-2-methylphenyl)ethan-1-one] | 160 nM | IC50 (HepG2 cells; NA = not active): 3400 nM
6 | CCc1cc(OC)c(-n2nnc(S(=O)(=O)c3ccc(C(C)(C)C)cc3)c2C)cc1Cl [LC-31, 4-((4-(tert-butyl)phenyl)sulfonyl)-1-(5-chloro-4-ethyl-2-methoxyphenyl)-5-methyl-1H-1,2,3-triazole] | 760 nM | IC50 (HepG2 cells; NA = not active): 14800 nM
7 | COc1cc(C(C)C)c(Cl)cc1-n1nnc(S(=O)(=O)c2ccc(C(C)(C)C)cc2)c1C [LC-32, 4-((4-(tert-butyl)phenyl)sulfonyl)-1-(5-chloro-4-isopropyl-2-methoxyphenyl)-5-methyl-1H-1,2,3-triazole] | 3400 nM | 
8 | COC(=O)c1cc(OC)c(-n2nnc(S(=O)(=O)c3ccc(C(C)(C)C)cc3)c2C)cc1Cl [LC-34, methyl 4-(4-((4-(tert-butyl)phenyl)sulfonyl)-5-methyl-1H-1,2,3-triazol-1-yl)-2-chloro-5-methoxybenzoate] | 1600 nM | 
9 | COc1cc(C(C)=O)c(Cl)cc1-n1nnc(S(=O)(=O)c2ccc(C(C)(C)C)cc2)c1C [LC-35, 1-(4-(4-((4-(tert-butyl)phenyl)sulfonyl)-5-methyl-1H-1,2,3-triazol-1-yl)-2-chloro-5-methoxyphenyl)ethan-1-one] | 1300 nM | IC50 (HepG2 cells; NA = not active): 7200 nM
10 | COc1cc(C#N)c(Cl)cc1-n1nnc(S(=O)(=O)c2ccc(C(C)(C)C)cc2)c1C [LC-36, 4-(4-((4-(tert-butyl)phenyl)sulfonyl)-5-methyl-1H-1,2,3-triazol-1-yl)-2-chloro-5-methoxybenzonitrile] |  | EC50 (hPXR [2]): 2400 nM
11 | COc1ccc(OC)c(-n2nnc(S(=O)(=O)c3ccc(C(C)(C)C)cc3)c2N)c1 [LC-37, 4-((4-(tert-butyl)phenyl)sulfonyl)-1-(2,5-dimethoxyphenyl)-1H-1,2,3-triazol-5-amine] | 4100 nM | 
12 | COc1ccc(C)cc1-n1nnc(S(=O)(=O)c2ccc(C(C)(C)C)cc2)c1N [LC-38, 4-((4-(tert-butyl)phenyl)sulfonyl)-1-(2-methoxy-5-methylphenyl)-1H-1,2,3-triazol-5-amine] | 1300 nM | 
13 | COc1ccc(Cl)cc1-n1nnc(S(=O)(=O)c2ccc(C(C)(C)C)cc2)c1N [LC-39, 4-((4-(tert-butyl)phenyl)sulfonyl)-1-(5-chloro-2-methoxyphenyl)-1H-1,2,3-triazol-5-amine] | 1000 nM | IC50 (HepG2 cells; NA = not active): 16100 nM
14 | COc1ccc(OC)c(-n2nnc(Nc3ccc(C(C)(C)C)cc3)c2C)c1 [LC-43, N-(4-(tert-butyl)phenyl)-1-(2,5-dimethoxyphenyl)-5-methyl-1H-1,2,3-triazol-4-amine] | 1500 nM | 
15 | COc1ccc(C)cc1-n1nnc(Nc2ccc(C(C)(C)C)cc2)c1C [LC-44, N-(4-(tert-butyl)phenyl)-1-(2-methoxy-5-methylphenyl)-5-methyl-1H-1,2,3-triazol-4-amine] | 1200 nM | IC50 (HepG2 cells; NA = not active): 22500 nM
16 | COc1ccc(Cl)cc1-n1nnc(Nc2ccc(C(C)(C)C)cc2)c1C [LC-45, N-(4-(tert-butyl)phenyl)-1-(5-chloro-2-methoxyphenyl)-5-methyl-1H-1,2,3-triazol-4-amine] | 1100 nM | IC50 (HepG2 cells; NA = not active): 30700 nM
17 | COc1ccc(OC)c(-n2nnc(N(C)c3ccc(C(C)(C)C)cc3)c2C)c1 [LC-46, N-(4-(tert-butyl)phenyl)-1-(2,5-dimethoxyphenyl)-N,5-dimethyl-1H-1,2,3-triazol-4-amine] | 980 nM | 
18 | COc1ccc(C)cc1-n1nnc(N(C)c2ccc(C(C)(C)C)cc2)c1C [LC-47, N-(4-(tert-butyl)phenyl)-1-(2-methoxy-5-methylphenyl)-N,5-dimethyl-1H-1,2,3-triazol-4-amine] | 730 nM | 
19 | COc1ccc(Cl)cc1-n1nnc(N(C)c2ccc(C(C)(C)C)cc2)c1C [LC-48, N-(4-(tert-butyl)phenyl)-1-(5-chloro-2-methoxyphenyl)-N,5-dimethyl-1H-1,2,3-triazol-4-amine] | 700 nM | IC50 (HepG2 cells; NA = not active): 33800 nM

Row | Structure (SMILES) | EC50 (hPXR [3]) | also measured
20 | COc1ccc(C)cc1-n1nnc(S(=O)(=O)c2ccc(C(C)(C)C)cc2)c1C#N [LC-50, 4-((4-(tert-butyl)phenyl)sulfonyl)-1-(2-methoxy-5-methylphenyl)-1H-1,2,3-triazole-5-carbonitrile] | 180 nM | 
21 | COc1ccc(Cl)cc1-n1nnc(S(=O)(=O)c2ccc(C(C)(C)C)cc2)c1C#N [LC-51, 4-((4-(tert-butyl)phenyl)sulfonyl)-1-(5-chloro-2-methoxyphenyl)-1H-1,2,3-triazole-5-carbonitrile] | 140 nM | 
22 | COc1ccc(Cl)cc1-n1nnc(S(=O)(=O)c2ccc(C(C)(C)C)cc2)c1C(C)=O [LC-54, 1-(4-((4-(tert-butyl)phenyl)sulfonyl)-1-(5-chloro-2-methoxyphenyl)-1H-1,2,3-triazol-5-yl)ethan-1-one] | 530 nM | 
23 | COc1ccc(C)cc1-n1nnc(S(=O)(=O)c2ccc(C(C)(C)C)cc2)c1CCl [LC-65, 4-((4-(tert-butyl)phenyl)sulfonyl)-5-(chloromethyl)-1-(2-methoxy-5-methylphenyl)-1H-1,2,3-triazole] | 6100 nM | IC50 (HepG2 cells; NA = not active): 7000 nM
24 | COc1ccc(OC)c(-c2ncc(S(=O)(=O)c3ccc(C(C)(C)C)cc3)[nH]2)c1 [LC-67, 5-((4-(tert-butyl)phenyl)sulfonyl)-2-(2,5-dimethoxyphenyl)-1H-imidazole] | 1700 nM | 
25 | COc1ccc(C)cc1-c1ncc(S(=O)(=O)c2ccc(C(C)(C)C)cc2)[nH]1 [LC-68, 5-((4-(tert-butyl)phenyl)sulfonyl)-2-(2-methoxy-5-methylphenyl)-1H-imidazole] | 1500 nM | 
26 | COc1ccc(Cl)cc1-c1ncc(S(=O)(=O)c2ccc(C(C)(C)C)cc2)[nH]1 [LC-69, 5-((4-(tert-butyl)phenyl)sulfonyl)-2-(5-chloro-2-methoxyphenyl)-1H-imidazole] | 610 nM | 
27 | COc1ccc(C)cc1-c1ncc(S(=O)(=O)c2ccc(C(C)(C)C)cc2)n1C [LC-71, 5-((4-(tert-butyl)phenyl)sulfonyl)-2-(2-methoxy-5-methylphenyl)-1-methyl-1H-imidazole] |  | IC50 (HepG2 cells; NA = not active): 34900 nM
28 | COc1ccc(Cl)cc1-c1ncc(S(=O)(=O)c2ccc(C(C)(C)C)cc2)n1C [LC-72, 5-((4-(tert-butyl)phenyl)sulfonyl)-2-(5-chloro-2-methoxyphenyl)-1-methyl-1H-imidazole] |  | IC50 (HepG2 cells; NA = not active): 30900 nM
29 | COc1ccc(Cl)cc1-c1nc(C)c(S(=O)(=O)c2ccc(C(C)(C)C)cc2)[nH]1 [LC-75, 5-((4-(tert-butyl)phenyl)sulfonyl)-2-(5-chloro-2-methoxyphenyl)-4-methyl-1H-imidazole] | 920 nM | 
30 | COc1ccc(OC)c(-c2nc(C)c(S(=O)(=O)c3ccc(C(C)(C)C)cc3)n2C)c1 [LC-76, 5-((4-(tert-butyl)phenyl)sulfonyl)-2-(2,5-dimethoxyphenyl)-1,4-dimethyl-1H-imidazole] | 2800 nM | 
31 | COc1ccc(C)cc1-c1nc(C)c(S(=O)(=O)c2ccc(C(C)(C)C)cc2)n1C [LC-77, 5-((4-(tert-butyl)phenyl)sulfonyl)-2-(2-methoxy-5-methylphenyl)-1,4-dimethyl-1H-imidazole] | 790 nM | 
32 | COc1ccc(Cl)cc1-c1nc(C)c(S(=O)(=O)c2ccc(C(C)(C)C)cc2)n1C [LC-78, 5-((4-(tert-butyl)phenyl)sulfonyl)-2-(5-chloro-2-methoxyphenyl)-1,4-dimethyl-1H-imidazole] | 1400 nM | IC50 (HepG2 cells; NA = not active): 24400 nM
33 | COc1ccc(C)cc1-c1ncc(C(=O)c2ccc(C(C)(C)C)cc2)n1C [LC-80, (4-(tert-butyl)phenyl)(2-(2-methoxy-5-methylphenyl)-1-methyl-1 h-imidazol-5-yl)methanone] | 2400 nM | 
34 | COc1ccc(Cl)cc1-c1ncc(C(=O)c2ccc(C(C)(C)C)cc2)n1C [LC-81, (4-(tert-butyl)phenyl)(2-(5-chloro-2-methoxyphenyl)-1-methyl-1H-imidazol-5-yl)methanone] | 1200 nM | 
35 | COc1ccc(O)c(-n2nnc(S(=O)(=O)c3ccc(C(C)(C)C)c(O)c3)c2C)c1 [LC-83, 2-(4-((4-(tert-butyl)-3-hydroxyphenyl)sulfonyl)-5-methyl-1H-1,2,3-triazol-1-yl)-4-methoxyphenol] |  | IC50 (HepG2 cells): 16200 nM; EC50 (hPXR [2]): 5000 nM
36 | COc1ccc(OC)c(-n2nnc(S(=O)(=O)c3ccc(C(C)(C)C)cc3O)c2C)c1 [LC-84, 5-(tert-butyl)-2-((1-(2,5-dimethoxyphenyl)-5-methyl-1H-1,2,3-triazol-4-yl)sulfonyl)phenol] |  | IC50 (HepG2 cells): 20900 nM; EC50 (hPXR [2]): 3300 nM
37 | COc1ccc(O)cc1-n1nnc(S(=O)(=O)c2ccc(C(C)(C)C)cc2)c1C [LC-87, 3-(4-((4-(tert-butyl)phenyl)sulfonyl)-5-methyl-1H-1,2,3-triazol-1-yl)-4-methoxyphenol] |  | EC50 (hPXR [2]): 12000 nM
38 | COc1ccc(OC)c(-n2nnc(S(=O)(=O)c3ccc(C(C)(C)C)c(O)c3)c2C)c1 [LC-88, 2-(tert-butyl)-5-((1-(2,5-dimethoxyphenyl)-5-methyl-1H-1,2,3-triazol-4-yl)sulfonyl)phenol] |  | IC50 (HepG2 cells): 13000 nM; EC50 (hPXR [2]): 1400 nM
